Assay [1] has as its system NCI-H1975. In words: Induction of cell cycle arrest in human NCI-H1975 cells harboring EGFR L858R/T790M mutant assessed as accumulation of cells in G2/M phase at 1 uM measured after 18 hrs by PI/RNaseA staining based flow cytometry analysis (Rvb= 17.33%). It is filed as functional. (In flow cytometry, cells or beads pass a laser one at a time.)
For assay [2], the system named is HCC827. Put plainly: Induction of apoptosis in human HCC827 cells harboring EGFR del E746-A750 mutant assessed as early apoptotic cells at 0.5 uM measured after 18 hrs by Annexin V-FITC/PI staining based flow cytometry analysis (Rvb= 9.6%). Type of assay: functional.
Assay [3] in a line: Cytotoxicity against human HBE cells assessed as reduction in cell viability measured after 48 hrs by CCK8 assay. Type of assay: cell-based. On the technique in general: Formazan colour is commonly taken as a measure of viable cells.
The subject of assay [4] is NCI-H1975. In words: Cytotoxicity against human NCI-H1975 cells harboring EGFR L858R/T790M mutant assessed as reduction in cell viability measured after 48 hrs by CCK8 assay. Type of assay: functional, cell-based. The conditions noted are these: NCI-H1975, 48 h.
Assay [5] concerns the target T1, Epidermal growth factor receptor (Homo sapiens, UniProt P00533). Put plainly: Inhibition of wild type EGFR (unknown origin) at 80 nM pretreated with substrate for 10 mins followed by ATP addition measured after 60 mins by mobility shift assay relative to control.
Assay [6] relates to Epidermal growth factor receptor (Homo sapiens), P00533 [L858R,T790M]. Put plainly: Inhibition of […] EGFR L858R/T790M mutant (unknown origin) at 2 nM pretreated with substrate for 10 mins followed by ATP addition measured after 60 mins by mobility shift assay relative to control.
Assay [7] has as its system Epidermal growth factor receptor (Homo sapiens), P00533 [UNDEFINED MUTATION]. Put plainly: Inhibition of […] EGFR Del E746/A750 mutant (unknown origin) at 2 nM pretreated with substrate for 10 mins followed by ATP addition measured after 60 mins by mobility shift assay relative to control.
The test system of assay [8] is Epidermal growth factor receptor (Homo sapiens), P00533 [L858R]. Put plainly: Inhibition of […] EGFR L858R mutant (unknown origin) at 2 nM pretreated with substrate for 10 mins followed by ATP addition measured after 60 mins by mobility shift assay relative to control.
Assay [9] deals with Epidermal growth factor receptor (Homo sapiens), P00533 [T790M]. Put plainly: Inhibition of […] EGFR T790M mutant (unknown origin) at 2 nM pretreated with substrate for 10 mins followed by ATP addition measured after 60 mins by mobility shift assay relative to control.
The test system of assay [10] is Epidermal growth factor receptor (Homo sapiens), P00533 [C797S]. Put plainly: Inhibition of […] EGFR C797S mutant (unknown origin) at 2 nM pretreated with substrate for 10 mins followed by ATP addition measured after 60 mins by mobility shift assay relative to control.
Assay [11] has as its system Epidermal growth factor receptor (Homo sapiens), P00533 [L858R,T790M,C797S]. In words: Inhibition of […] EGFR L858R/T790M/C797S mutant (unknown origin) at 2 nM pretreated with substrate for 10 mins followed by ATP addition measured after 60 mins by mobility shift assay relative to control.
Assay [12] concerns the target T1, Epidermal growth factor receptor. In words: Inhibition of wild type EGFR (unknown origin) pretreated with substrate for 10 mins followed by ATP addition measured after 60 mins by mobility shift assay.
Assay [13] has as its target Epidermal growth factor receptor (Homo sapiens, UniProt P00533, L858R/T790M). Put plainly: Inhibition of […] EGFR L858R/T790M mutant (unknown origin) pretreated with substrate for 10 mins followed by ATP addition measured after 60 mins by mobility shift assay.
The target in assay [14] is Epidermal growth factor receptor (Homo sapiens, UniProt P00533, DELE746). Put plainly: Inhibition of […] EGFR Del E746/A750 mutant (unknown origin) pretreated with substrate for 10 mins followed by ATP addition measured after 60 mins by mobility shift assay.
The target in assay [15] is Epidermal growth factor receptor (Homo sapiens, UniProt P00533, L858R). In words: Inhibition of […] EGFR L858R mutant (unknown origin) pretreated with substrate for 10 mins followed by ATP addition measured after 60 mins by mobility shift assay.
For assay [16], the target named is Epidermal growth factor receptor (Homo sapiens, UniProt P00533, T790M). In words: Inhibition of […] EGFR T790M mutant (unknown origin) pretreated with substrate for 10 mins followed by ATP addition measured after 60 mins by mobility shift assay.
For assay [17], the target named is Epidermal growth factor receptor (Homo sapiens, UniProt P00533, C797S). In words: Inhibition of […] EGFR C797S mutant (unknown origin) pretreated with substrate for 10 mins followed by ATP addition measured after 60 mins by mobility shift assay.
Assay [18] deals with Epidermal growth factor receptor (Homo sapiens, UniProt P00533, C797S/L858R/T790M). Put plainly: Inhibition of […] EGFR L858R/T790M/C797S mutant (unknown origin) pretreated with substrate for 10 mins followed by ATP addition measured after 60 mins by mobility shift assay.
The subject of assay [19] is NCI-H1975. In words: Induction of cell cycle arrest in human NCI-H1975 cells harboring EGFR L858R/T790M mutant assessed as accumulation of cells in G0/G1 phase at 1 uM measured after 18 hrs by PI/RNaseA staining based flow cytometry analysis (Rvb= 42.69%). Type of assay: functional.
Assay [20] has as its system HCC827. Put plainly: Induction of apoptosis in human HCC827 cells harboring EGFR del E746-A750 mutant assessed as dead cells at 0.5 uM measured after 18 hrs by Annexin V-FITC/PI staining based flow cytometry analysis (Rvb= […]). Type of assay: functional.
Assay [21] deals with T1, Epidermal growth factor receptor. In words: Inhibition of wild type EGFR phosphorylation at Tyr992 residue in human HBE cells up to 5 uM incubated for 2 hrs by immunoblotting analysis. Type of assay: cell-based. The conditions noted are these: dose microM <=5, time 2.0 hrs. A general note: In western blotting, separated proteins are transferred to a membrane and probed.

Assay [22] shares this target. In words: Inhibition of wild type EGFR phosphorylation at Tyr1068 residue in human HBE cells up to 5 uM incubated for 2 hrs by immunoblotting analysis. It is filed as cell-based. The conditions noted are these: dose microM <=5, time 2.0 hrs.
Assay [23] shares this target. Put plainly: Inhibition of […] EGFR phosphorylation at Tyr992 residue in human NCI-H1975 cells at 0.1 to 5 uM incubated for 2 hrs by immunoblotting analysis. The conditions noted are these: dose 0.1-5 µM. Type of assay: cell-based.
The target is the same in assay [24]. In words: Inhibition of […] EGFR phosphorylation at Tyr1068 residue in human NCI-H1975 cells at 0.1 to 5 uM incubated for 2 hrs by immunoblotting analysis. It is filed as cell-based. The conditions noted are these: dose 0.1-5 µM.
The target is the same in assay [25]. In words: Inhibition of […] EGFR phosphorylation at Tyr992 residue in human HCC827 cells at 0.1 to 5 uM incubated for 2 hrs by immunoblotting analysis. The conditions noted are these: dose 0.1-5 µM. Type of assay: cell-based.
Assay [26] shares this target. In words: Inhibition of […] EGFR phosphorylation at Tyr1068 residue in human HCC827 cells at 0.1 to 5 uM incubated for 2 hrs by immunoblotting analysis. Type of assay: cell-based. The conditions noted are these: dose 0.1-5 µM.
The test system of assay [27] is HCC827. In words: Potency index, ratio of avitinib IC50 to test compound IC50 for cytotoxicity against human HCC827 cells harboring EGFR del E746-A750 mutant assessed as reduction in cell viability measured after 48 hrs by CCK8 assay. Type of assay: functional.
A short description of assay [28]: Selectivity index, ratio of IC50 for cytotoxicity against human A549 cells harboring wild type EGFR to IC50 for cytotoxicity against human HCC827 cells harboring EGFR del E746-A750 mutant assessed as reduction in cell viability measured after 48 hrs by CCK8 assay.

Calls of active or inactive are those of the source. The rule behind the calls is not given here.

T1 sequence (P00533 whole entry): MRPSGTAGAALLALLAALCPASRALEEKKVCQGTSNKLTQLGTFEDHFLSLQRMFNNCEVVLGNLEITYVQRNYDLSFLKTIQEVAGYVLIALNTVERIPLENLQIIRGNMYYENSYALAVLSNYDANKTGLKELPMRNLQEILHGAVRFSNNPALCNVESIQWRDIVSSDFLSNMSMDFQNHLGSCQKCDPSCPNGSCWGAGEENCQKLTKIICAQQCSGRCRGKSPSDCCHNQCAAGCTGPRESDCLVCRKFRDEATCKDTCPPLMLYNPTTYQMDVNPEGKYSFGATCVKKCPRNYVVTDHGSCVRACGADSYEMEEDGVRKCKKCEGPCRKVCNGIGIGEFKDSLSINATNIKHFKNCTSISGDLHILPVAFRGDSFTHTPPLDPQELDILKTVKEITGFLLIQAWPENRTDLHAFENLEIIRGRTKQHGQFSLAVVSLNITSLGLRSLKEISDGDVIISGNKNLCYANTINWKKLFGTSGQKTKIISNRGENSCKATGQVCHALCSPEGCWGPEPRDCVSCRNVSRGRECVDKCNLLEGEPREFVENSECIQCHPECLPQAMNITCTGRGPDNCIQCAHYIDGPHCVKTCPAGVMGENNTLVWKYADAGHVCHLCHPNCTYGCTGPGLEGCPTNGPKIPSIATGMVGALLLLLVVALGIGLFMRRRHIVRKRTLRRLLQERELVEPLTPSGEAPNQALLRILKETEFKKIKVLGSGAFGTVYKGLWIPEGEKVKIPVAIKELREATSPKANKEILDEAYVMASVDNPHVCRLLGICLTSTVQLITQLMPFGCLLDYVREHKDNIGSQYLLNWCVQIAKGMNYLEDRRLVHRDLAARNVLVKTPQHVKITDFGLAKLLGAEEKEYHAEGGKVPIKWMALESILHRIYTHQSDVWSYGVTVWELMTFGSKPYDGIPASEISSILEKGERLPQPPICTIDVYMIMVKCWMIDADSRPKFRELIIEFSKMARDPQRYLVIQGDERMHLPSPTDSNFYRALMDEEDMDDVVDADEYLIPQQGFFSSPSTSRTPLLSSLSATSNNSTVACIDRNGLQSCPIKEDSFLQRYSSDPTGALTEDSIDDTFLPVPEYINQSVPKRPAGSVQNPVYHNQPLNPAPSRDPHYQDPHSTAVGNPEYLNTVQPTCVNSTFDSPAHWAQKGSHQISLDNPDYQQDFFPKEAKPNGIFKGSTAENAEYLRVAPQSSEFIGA
Sequence of Epidermal growth factor receptor (Homo sapiens, UniProt P00533, C797S/L858R/T790M) (P00533 25-1210 T790M/C797S/L858R limits assumed): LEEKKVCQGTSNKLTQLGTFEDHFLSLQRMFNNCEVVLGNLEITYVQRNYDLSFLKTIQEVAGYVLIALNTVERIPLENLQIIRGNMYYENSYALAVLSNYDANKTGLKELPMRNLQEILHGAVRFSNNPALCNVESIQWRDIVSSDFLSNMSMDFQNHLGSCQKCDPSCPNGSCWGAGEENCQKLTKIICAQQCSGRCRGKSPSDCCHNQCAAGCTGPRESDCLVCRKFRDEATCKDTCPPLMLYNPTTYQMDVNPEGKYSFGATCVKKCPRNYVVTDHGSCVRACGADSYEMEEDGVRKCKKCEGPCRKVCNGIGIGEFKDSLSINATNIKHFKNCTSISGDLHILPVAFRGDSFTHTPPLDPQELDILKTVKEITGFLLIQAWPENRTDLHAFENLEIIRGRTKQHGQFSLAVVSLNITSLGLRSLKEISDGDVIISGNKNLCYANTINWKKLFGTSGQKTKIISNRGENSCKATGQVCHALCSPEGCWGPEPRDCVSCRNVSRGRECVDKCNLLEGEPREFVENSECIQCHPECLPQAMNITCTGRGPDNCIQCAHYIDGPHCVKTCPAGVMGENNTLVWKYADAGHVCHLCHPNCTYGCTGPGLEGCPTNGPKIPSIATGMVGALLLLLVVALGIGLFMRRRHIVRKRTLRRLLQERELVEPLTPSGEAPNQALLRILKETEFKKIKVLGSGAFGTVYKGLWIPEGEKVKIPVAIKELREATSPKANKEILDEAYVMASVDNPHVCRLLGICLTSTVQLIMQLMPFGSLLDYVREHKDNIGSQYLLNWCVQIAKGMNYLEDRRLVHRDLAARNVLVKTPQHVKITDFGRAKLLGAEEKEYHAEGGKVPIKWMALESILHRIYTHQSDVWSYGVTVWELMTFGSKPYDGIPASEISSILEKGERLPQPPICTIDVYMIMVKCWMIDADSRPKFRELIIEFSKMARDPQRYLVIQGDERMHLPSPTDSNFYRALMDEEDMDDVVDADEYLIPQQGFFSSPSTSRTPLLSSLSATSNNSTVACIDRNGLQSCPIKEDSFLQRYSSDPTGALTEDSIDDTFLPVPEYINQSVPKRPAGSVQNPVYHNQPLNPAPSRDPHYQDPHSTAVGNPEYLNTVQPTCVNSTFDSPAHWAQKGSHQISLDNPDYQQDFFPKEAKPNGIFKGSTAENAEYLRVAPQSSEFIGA
Sequence of Epidermal growth factor receptor (Homo sapiens, UniProt P00533, T790M) (P00533 25-1210 T790M limits assumed): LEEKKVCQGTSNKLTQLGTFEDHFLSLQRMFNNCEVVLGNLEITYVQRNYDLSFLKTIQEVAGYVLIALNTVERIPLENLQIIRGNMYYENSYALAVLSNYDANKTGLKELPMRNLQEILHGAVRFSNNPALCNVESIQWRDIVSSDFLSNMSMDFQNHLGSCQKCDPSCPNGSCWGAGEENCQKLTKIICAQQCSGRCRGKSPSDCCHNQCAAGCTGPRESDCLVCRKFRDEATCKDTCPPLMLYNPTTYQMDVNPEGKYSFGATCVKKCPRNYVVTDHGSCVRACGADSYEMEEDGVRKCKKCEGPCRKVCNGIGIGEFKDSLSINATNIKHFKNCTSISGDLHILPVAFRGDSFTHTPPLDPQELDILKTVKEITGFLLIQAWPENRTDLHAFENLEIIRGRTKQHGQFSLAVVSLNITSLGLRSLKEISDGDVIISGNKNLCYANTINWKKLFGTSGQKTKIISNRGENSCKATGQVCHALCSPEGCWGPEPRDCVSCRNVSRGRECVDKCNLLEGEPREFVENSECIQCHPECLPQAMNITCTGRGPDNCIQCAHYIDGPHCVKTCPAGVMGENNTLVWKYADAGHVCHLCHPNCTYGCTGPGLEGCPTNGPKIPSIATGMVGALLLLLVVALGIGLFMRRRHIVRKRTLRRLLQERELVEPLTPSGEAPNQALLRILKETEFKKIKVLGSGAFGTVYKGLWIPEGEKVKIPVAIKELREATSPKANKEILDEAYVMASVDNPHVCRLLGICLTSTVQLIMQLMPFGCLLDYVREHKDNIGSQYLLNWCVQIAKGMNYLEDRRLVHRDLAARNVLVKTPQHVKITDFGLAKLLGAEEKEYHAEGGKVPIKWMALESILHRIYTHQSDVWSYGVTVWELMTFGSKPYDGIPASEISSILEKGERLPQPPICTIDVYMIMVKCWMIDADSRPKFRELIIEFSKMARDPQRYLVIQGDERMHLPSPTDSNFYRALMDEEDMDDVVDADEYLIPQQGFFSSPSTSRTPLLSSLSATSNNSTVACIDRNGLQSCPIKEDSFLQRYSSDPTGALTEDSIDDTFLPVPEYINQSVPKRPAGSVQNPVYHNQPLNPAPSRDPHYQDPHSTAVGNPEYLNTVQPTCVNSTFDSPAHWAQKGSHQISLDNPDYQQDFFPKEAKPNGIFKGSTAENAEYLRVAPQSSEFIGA
Sequence of Epidermal growth factor receptor (Homo sapiens, UniProt P00533, C797S) (P00533 25-1210 C797S limits assumed): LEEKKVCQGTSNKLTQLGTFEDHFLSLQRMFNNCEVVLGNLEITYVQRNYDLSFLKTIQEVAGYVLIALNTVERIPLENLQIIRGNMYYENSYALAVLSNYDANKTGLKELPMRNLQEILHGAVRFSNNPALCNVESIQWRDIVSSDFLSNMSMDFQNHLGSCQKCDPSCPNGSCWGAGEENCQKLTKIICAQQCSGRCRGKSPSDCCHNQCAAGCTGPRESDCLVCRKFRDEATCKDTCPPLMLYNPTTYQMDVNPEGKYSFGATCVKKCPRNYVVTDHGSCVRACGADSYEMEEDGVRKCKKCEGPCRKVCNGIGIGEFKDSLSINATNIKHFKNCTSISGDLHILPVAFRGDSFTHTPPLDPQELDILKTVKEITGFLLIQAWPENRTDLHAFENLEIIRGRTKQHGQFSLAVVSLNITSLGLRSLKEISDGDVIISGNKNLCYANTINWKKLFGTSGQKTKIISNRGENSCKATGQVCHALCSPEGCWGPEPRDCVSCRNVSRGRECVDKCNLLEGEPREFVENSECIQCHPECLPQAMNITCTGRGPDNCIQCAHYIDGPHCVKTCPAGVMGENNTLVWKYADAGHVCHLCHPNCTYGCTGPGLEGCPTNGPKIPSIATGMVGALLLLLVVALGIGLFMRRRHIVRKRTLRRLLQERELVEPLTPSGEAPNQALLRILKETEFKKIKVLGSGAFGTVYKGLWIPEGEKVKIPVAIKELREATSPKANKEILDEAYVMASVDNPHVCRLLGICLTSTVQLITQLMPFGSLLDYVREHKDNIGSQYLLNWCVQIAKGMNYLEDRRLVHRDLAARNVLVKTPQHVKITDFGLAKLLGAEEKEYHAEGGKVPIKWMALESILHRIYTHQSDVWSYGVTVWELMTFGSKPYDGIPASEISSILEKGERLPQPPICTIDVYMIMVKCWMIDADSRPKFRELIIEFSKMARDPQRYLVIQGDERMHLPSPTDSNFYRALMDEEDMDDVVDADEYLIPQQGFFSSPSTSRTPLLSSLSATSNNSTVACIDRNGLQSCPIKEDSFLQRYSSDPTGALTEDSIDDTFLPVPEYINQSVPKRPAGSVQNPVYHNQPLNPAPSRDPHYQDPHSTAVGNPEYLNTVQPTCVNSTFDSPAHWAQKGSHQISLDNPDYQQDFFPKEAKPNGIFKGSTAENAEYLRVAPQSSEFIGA

For `C=CC(=O)Nc1cccc(Oc2nc(Nc3ccc(N4CCN(C)CC4)c(F)c3)nc3[nH]ccc23)c1` [ABIVERTINIB], the Activity was 17.13% in assay [1] and 12% in assay [2].
`C=CC(=O)Nc1cccc(Oc2nc(Nc3ccc(N4CCN(C)CC4)c([N+](=O)[O-])c3)nc3[nH]ccc23)c1`: the IC50 (as a rule, the concentration that inhibits the measured activity by half) in assay [3] is 7540 nM; in [4], 3100 nM; in assay [12] it was 111 nM; in [13] it was 7.3 nM; in assay [14], 10 nM; in [15] it was 0.39 nM. For the same compound, the IC50 in assay [16] is more than 10000 nM; in assay [17], 1.2 nM; in assay [18], 829 nM. In addition, the inhibition (usually the drop in the measured response relative to a control, in per cent) stood at 37% in assay [5]; 49% in assay [6]; 23% in [7]; 19% in assay [8]; 91% in assay [9]; 3.7% in assay [10]. Further, the inhibition in [11] turned out to be 5.8%. Besides, the Activity in assay [19] worked out at 72.08%; in assay [1], 14.81%; in assay [2] it was 12.4%; in assay [20], 1.4%. In addition, the inhibition entry in assay [21] and in [22] was “inactive” in each case. Besides, the inhibition entry in assay [23], in assay [24], in assay [25] and in assay [26] was “Active” each time.
For `C=CC(=O)Nc1cccc(Oc2nc(Nc3ccc(N4CCN(C)CC4)c(N)c3)nc3[nH]ccc23)c1`, the IC50 in [3] turned out to be 22700 nM; in assay [4], 3840 nM; in assay [12] it was 22 nM; in [13] it was 2.2 nM; in assay [14], 2 nM; in [15], 0.21 nM. Also, the IC50 in assay [16] was more than 10000 nM; in assay [17] it was 0.76 nM; in assay [18] it was 119 nM. Also, in [27], the “Ratio IC50” value came out at 2. For the same compound, the “Selectivity Index” value in [28] worked out at 132. Moreover, the inhibition in assay [5] was 63%; in assay [6], 85%; in [7], 63%; in assay [8] it was 40%; in [9] it was 96%; in assay [10], 16%. Also, in assay [11], the inhibition was determined as 8%. Besides, the Activity in assay [19] turned out to be 69.17%; in assay [1], 11.6%; in assay [2] it was 11.1%; in [20], 2.1%. In addition, the inhibition entry in assay [21] and in assay [22] was “inactive” throughout. Further, the inhibition entry in [23], in [24], in assay [25] and in assay [26] was “Active” each time.
